According to US20210355103A1, “PARG INHIBITORS AND METHOD OF USE THEREOF” (City of Hope, priority 2018, published 2021):

What was measured:
PARG = target: T1, PARG (Homo sapiens, UniProt Q86W56); assay: PAR digestion assay (dot blotting) for PARG inhibition; format: biochemical; conditions: 0.25 nM PARG incubated with 10 μM PAR for 20 min at room temperature; dot blotting with anti-PAR antibody
T1 construct: made in house; host or cells: Sf9 insect cells
Method: Compounds (FIG. 4) were synthesized to examine the efficacy of PARG inhibition by dot blotting assay (Example 5). 0.25 nM PARG was incubated with 10 μM PAR for 20 min at room temperature with or without inhibitors. PAR-digestion results were analyzed using dot blotting with anti-PAR antibody.
The array includes compounds in FIG. 4 (PG002 (“002”), PG006 (“006”), PG008 (“008”), PG010 (“010”), and PG021(“021”)), PC (positive control, PAR only), NC (negative control, no inhibitor), and COH34 (“34”, positive control for PARG inhibition). In FIG. 5A, 0.3X means 3-fold dilution.
Recombinant PARG protein from Sf9 cells were incubated with PAR purified from FhCh-treated PARG-knock down HCT116 cells (10 μM, calculated as the ADP-ribose unit) and DMSO (Negative control, NC) or small molecules for 20 minutes at room temperature. Positive control (PC) only contains PAR in PBS. Samples (1 μl) were spotted onto a nitrocellulose membrane. Then, the membrane was backed for 30 minutes at 60° C. and blocked with TBST buffer (0.15 M NaCl, 0.01 M Tris-HCl at pH 7.4, 0.1% Tween 20) supplemented with 5% milk for 30 minutes at room temperature. After washing with TBST, the membrane was incubated with monoclonal PAR antibody (Trevigen, Inc.) overnight at 4° C. Following standard Western blotting method, the signals were visualized by chemiluminescent detection (FIG. 5B).

[1] = tested on: HCC1937 (BRCA1-mutant breast cancer cells); assay: Colony formation (cell viability) assay in HCC1937 cells; format: cell-based; conditions: HCC1937, 1 μM PARG inhibitor, 14-day culture, colonies >50 cells counted
Method: To examine the efficacy of PG compounds in DNA repair-defective cancer cells, colony formation assays were performed using HCC1937 (BRCA1-mutant breast cancer cells) with or without 1 μM PARG inhibitors (PG002, PG006, PG008, and PG010). COH34 was used as a positive control. HCC1937 (˜1000 cells) were seeded into six-well plates and then treated by various doses of PARG inhibitors. After a 14-day culture, the viable cells were fixed by methanol and stained with crystal violet. The number of colonies (>50 cells for each colony) was calculated. The results were summarized in the histograms (FIG. 7).

T1 sequence (Q86W56 whole entry): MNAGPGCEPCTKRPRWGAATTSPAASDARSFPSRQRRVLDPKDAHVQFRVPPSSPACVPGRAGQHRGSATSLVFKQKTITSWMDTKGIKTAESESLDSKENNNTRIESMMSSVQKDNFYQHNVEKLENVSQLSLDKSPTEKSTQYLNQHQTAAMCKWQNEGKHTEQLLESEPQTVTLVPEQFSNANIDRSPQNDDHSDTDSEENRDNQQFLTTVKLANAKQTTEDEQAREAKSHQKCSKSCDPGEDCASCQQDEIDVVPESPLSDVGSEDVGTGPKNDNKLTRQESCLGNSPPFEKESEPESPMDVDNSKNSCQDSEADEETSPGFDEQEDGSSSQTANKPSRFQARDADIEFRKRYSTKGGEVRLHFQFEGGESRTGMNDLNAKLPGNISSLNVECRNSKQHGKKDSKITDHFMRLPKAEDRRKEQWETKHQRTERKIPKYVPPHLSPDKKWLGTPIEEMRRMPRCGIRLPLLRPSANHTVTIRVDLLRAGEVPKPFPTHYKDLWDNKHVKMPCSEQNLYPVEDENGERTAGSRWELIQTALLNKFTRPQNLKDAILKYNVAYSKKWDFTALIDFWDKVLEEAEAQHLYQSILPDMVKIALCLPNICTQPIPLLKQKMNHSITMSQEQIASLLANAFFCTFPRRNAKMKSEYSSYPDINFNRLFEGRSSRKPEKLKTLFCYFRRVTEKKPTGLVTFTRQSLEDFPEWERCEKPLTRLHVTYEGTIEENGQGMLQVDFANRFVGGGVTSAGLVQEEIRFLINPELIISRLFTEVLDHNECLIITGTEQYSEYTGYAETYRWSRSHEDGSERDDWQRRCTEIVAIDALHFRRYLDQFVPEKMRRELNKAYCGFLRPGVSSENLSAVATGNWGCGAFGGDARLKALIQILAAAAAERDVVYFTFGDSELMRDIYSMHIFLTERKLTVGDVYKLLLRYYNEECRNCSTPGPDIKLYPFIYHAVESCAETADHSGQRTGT

SMILES | inhibitory activity for PARG (PARG) | death of the tumor cells (colony formation) [1]
O=C(N/N=C/c1c(O)ccc2ccccc12)c1ccc(Cl)cn1 [PG002, 5-chloro-N′-[(1E)-(2-hydroxynaphthalen-1-yl)methylidene]pyridine-2-carbohydrazide] | good inhibitory activity | increased death of the tumor cells
O=C(N/N=C/c1nccc2ccccc12)c1ccc(Cl)cc1 [PG006, 4-chloro-N′-[(1E)-(isoquinolin-1-yl)methylidene]benzohydrazide] | good inhibitory activity | increased death of the tumor cells

More lines, main results first:

inhibitory activity for PARG (PARG) | SMILES | death of the tumor cells (colony formation) [1]
good inhibitory activity | O=C(N/N=C/c1c(O)cnc2ccccc12)c1ccc(Cl)cc1 [PG008, 4-chloro-N-[(1E)-(3-hydroxyquinolin-4-yl)methylidene]benzohydrazide] | increased death of the tumor cells
good inhibitory activity | O=C(N/N=C/c1c(O)ccc2cccnc12)c1ccc(Cl)cc1 [PG010, 4-chloro-N′-[(1E)-(7-hydroxyquinolin-8-yl)methylidene]benzohydrazide] | increased death of the tumor cells
good inhibitory activity | O=S(=O)(N/N=C/c1c(O)ccc2ccccc12)c1ccc(Cl)cn1 [PG021, 5-chloro-N′-[(1E)-(2-hydroxynaphthalen-1-yl)methylidene]pyridine-2-sulfonohydrazide] | –
